US11266624B2, “CRM1 inhibitors reduce primary and acquired resistance of EGFR inhibitors in lung cancer cells” (Texas Tech University System, priority 2018, dated 2022)
Where two headings read alike, the source gives them in different places. Marks after values point to notes of the source that are not given here. Values belong to the molecule of their own block, whether it stands above or below them.

What was measured:
A549 [1] = test: cells
From the text: (§1) Cell lines and reagents. The NSCLC cell lines A549 and H460 were purchased from American Type Culture Collection (ATCC).
(§2) Cell viability assay. […] Experiments were repeated independently three times.
(§3) Statistical analyses. […] One-way ANOVA was used to determine the difference in the analytical results of flow cytometry, qRT-PCR, Western bot, wound healing assay, anchorage-independent growth assay, transwell invasion assay, and Bio-Plex multiplex immunoassay among groups followed by a Fisher's LSD test. Differences with p<0.05 were considered statistically significant.

A549GLR = test: cells
From the text: as §1, §2, §3

A549GR = test: cells
From the text: as §1, §2, §3

A549 [2] = test: Analysis of cell cycle by flow cytometry in A549; format: cell-based, human; conditions: 48 hrs
From the text: Analysis of cell cycle by flow cytometry. […] Each sample was run in triplicate and each experiment was repeated three times.

A549 [3] = conditions: A549, KRAS-mutant NSCLC cell line; cited from earlier work
[4] = tested on: snail-transduced primary human mammary epithelial cells (HEMCs); conditions: 24-72 hrs treatment; cited from earlier work
A549 [5] = conditions: A549 (p53 wide type), 48 hrs; read-out: LMB IC50; cited from earlier work
H522 = H522 (p53-mutant); read-out: LMB IC50; cited from earlier work
[6] = tested on: NSCLC cell lines (A549, H522, and H358) and BEAS-2B; conditions: A549, H522, H358 vs BEAS-2B; cited from earlier work
H460 = test: MTT cell viability assay in H460; conditions: 0.5 nM LMB
From the text: as §1, §2, §3

H358 = H358 (p53 null); read-out: LMB IC50; cited from earlier work
[7] = single therapeutic agent; cited from earlier work
A549 [8] = test: Western blot of EGFR signaling and survival pathways in A549; format: cell-based, human
Procedure: Western blot analyses. […] Relative densitometric digital analysis for bands of targeted proteins was determined using Image J and normalized by the intensity of the housekeeping gene, α-tubulin.

NSCLC cells [9] = conditions: cited from earlier work
NSCLC cells [10] = conditions: cited from earlier work; remark: listed apart in the source
[11] = Homo sapiens, A549, read-out: IC50 of afatinib
[12] = 12 μM gefitinib (alone or + 0.5 nM LMB)
[13] = 24 μM gefitinib (alone or + 0.5 nM LMB)

IC50 (A549 [1]; [11]): 6 ± 1.2 µM
IC50 (A549GLR; [11]): 8 ± 1.5 µM
IC50 (A549GR; [11]): 20 ± 2.7 µM
SMILES: CN(C)C/C=C/C(=O)Nc1cc2c(Nc3ccc(F)c(Cl)c3)ncnc2cc1O[C@H]1CCOC1 [afatinib]

SMILES: COc1cc2ncnc(Nc3ccc(F)c(Cl)c3)c2cc1OCCCN1CCOCC1 [gefitinib]
Cell cycle (%) G0/G1 (A549 [2]; [12]): 68.0 ± 2.9 ^a %
Cell cycle (%) G2/M (A549 [2]; [12]): 19.9 ± 2.2 ^a %
Cell cycle (%) Pre-G1 (A549 [2]; [12]): 2.1 ± 0.4 ^a %
Cell cycle (%) S (A549 [2]; [12]): 9.7 ± 2.4 ^a %
Cell cycle (%) G0/G1 (A549 [2]; [13]): 84.0 ± 0.9 ^b %
Cell cycle (%) G2/M (A549 [2]; [13]): 7.9 ± 0.6 ^b %
Cell cycle (%) Pre-G1 (A549 [2]; [13]): 4.0 ± 1.3 ^b %
Cell cycle (%) S (A549 [2]; [13]): 3.4 ± 0.3 ^b %

SMILES: O=C(/C=C\n1cnc(-c2cc(C(F)(F)F)cc(C(F)(F)F)c2)n1)NNc1cnccn1 [KPT-330, Selinexor]
Response of A549 to treatment (A549 [3]): not responsive
Effect on EMT [4]: reverse EMT

SMILES: CCC(=C/[C@H](C)C/C=C/C(C)=C/[C@@H](C)C(=O)[C@@H](C)[C@H](O)[C@@H](C)C/C(C)=C/C(=O)O)/C=C/[C@@H]1OC(=O)C=C[C@@H]1C [LMB, Leptomycin B]
IC50 (A549 [5]): 0.0131 µM
IC50 (H522): 0.0057 µM
Cell growth inhibition, cancer vs normal cells [6]: remarkable cell growth inhibition in NSCLC cell lines (A549, H522, and H358) but not normal human lung epithelial cells (BEAS-2B)
Cytotoxic effect (cell viability) (H460): 92±5 % of control
Cell cycle (%) G0/G1 (A549 [2]; 0.5 nM LMB alone): 57.9 ± 3.1 ^b %
Cell cycle (%) G2/M (A549 [2]; 0.5 nM LMB alone): 24.4 ± 0.6 ^b %
Cell cycle (%) Pre-G1 (A549 [2]; 0.5 nM LMB alone): 13.5 ± 2.7 ^b %
Cell cycle (%) S (A549 [2]; 0.5 nM LMB alone): 3.6 ± 1.2 ^b %
Effect on EMT [4]: reverse EMT
IC50 (H358): 0.0005 µM
Toxicities in phase I trial [7]: gastrointestinal toxicities like malaise and anorexia
Relative protein expression level of Akt (A549 [8]; 0.5 nM LMB alone, 48 hrs, A549, control 100.0±0): 86±2
p21 expression (A549 [8]; A549, 48 hrs, LMB vs control, gefitinib+LMB vs gefitinib alone): dramatically increased
Cytotoxic effect (cell viability) (A549 [1]): 89±4 % of control
Cytotoxic effect (cell viability) (A549GLR): 88±5 % of control
Cytotoxic effect (cell viability) (A549GR): 96±3 % of control

SMILES: COc1cc(-c2ncn(/C=C\C(=O)OC(C)C)n2)cc(C(F)(F)F)c1 [KPT-185]
Cell cycle arrest (NSCLC cells [9]): arrested NSCLC cells in the G1 phase
Synergistic cytotoxic effects with EGFR TKIs (NSCLC cells [10]): no synergistic cytotoxic effects
Response of A549 to treatment (A549 [3]): not responsive
Effect on EMT [4]: reverse EMT
